From patent US6737383B1, “Herbicidal oxadiazolidines” (priority 1999, dated 2004)

Columns and labels:
[1] = test system: duck salad; test: Test B flood test duck salad; type: in vivo, Heteranthera limosa
Summary of the method: (§1)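 Each value is a visual injury score relative to controls, with 10 meaning complete control and 0 no effect. Evaluation took place twelve to sixteen days after the 2-leaf-stage plants were treated and kept in the greenhouse.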

[2] = test system: sugar beet; test: Test B pre/postemergence sugar beet; type: in vivo, Beta vulgaris; conditions: for Sugarbeets plant response rating: scale of 0 to 10 where 0 is no effect and 10 is complete control
Summary of the method: (§2)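 Response is a visual 0-to-10 score relative to untreated plants, where 0 means no effect and 10 means complete control, taken twelve to sixteen days after application. Treatments went onto soil at planting and onto foliage of 1- to 4-leaf plants, using a surfactant-containing non-phytotoxic solvent.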

[3] = test system: smallflower flatsedge; test: Test B flood test smallflower flatsedge; type: in vivo, Cyperus difformis
Summary of the method: as §1

[4] = test system: blackgrass; test: Test B pre/postemergence blackgrass; type: in vivo, Alopecurus myosuroides; conditions: for Blackgrass plant response rating: scale of 0 to 10 where 0 is no effect and 10 is complete control
Summary of the method: as §2

[5] = test system: rape; test: Test B pre/postemergence rape; type: in vivo, Brassica napus; conditions: for Rape plant response rating: scale of 0 to 10 where 0 is no effect and 10 is complete control
Summary of the method: as §2

[6] = test system: rice; test: Test B flood test rice; type: in vivo, Oryza sativa
Summary of the method: as §1

[7] = test system: crabgrass; test: Test B pre/postemergence crabgrass; type: in vivo, Digitaria sanguinalis; conditions: for Crabgrass plant response rating: scale of 0 to 10 where 0 is no effect and 10 is complete control
Summary of the method: as §2

[8] = test system: velvetleaf; test: Test B pre/postemergence velvetleaf; type: in vivo, Abutilon theophrasti; conditions: for Velvetleaf plant response rating: scale of 0 to 10 where 0 is no effect and 10 is complete control
Summary of the method: as §2

[9] = test system: morningglory; test: Test B pre/postemergence morningglory; type: in vivo, Ipomoea hederacea; conditions: for Morningglory plant response rating: scale of 0 to 10 where 0 is no effect and 10 is complete control
Summary of the method: as §2

[10] = test system: corn; test: Test B pre/postemergence corn; type: in vivo, Zea mays; conditions: for Corn plant response rating: scale of 0 to 10 where 0 is no effect and 10 is complete control
Summary of the method: as §2

[11] = test system: surinam grass; test: Test B pre/postemergence surinam grass; type: in vivo, Brachiaria decumbens; conditions: for B. signalgrass plant response rating: scale of 0 to 10 where 0 is no effect and 10 is complete control
Summary of the method: as §2

[12] = test system: pigweed; test: Test B pre/postemergence pigweed; type: in vivo, Amaranthus retroflexus; conditions: for Redroot pigweed plant response rating: scale of 0 to 10 where 0 is no effect and 10 is complete control
Summary of the method: as §2

[13] = test system: giant foxtail; test: Test B pre/postemergence giant foxtail; type: in vivo, Setaria faberii; conditions: for Giant foxtail plant response rating: scale of 0 to 10 where 0 is no effect and 10 is complete control
Summary of the method: as §2

[14] = test system: wheat; test: Test B pre/postemergence wheat; type: in vivo, Triticum aestivum; conditions: for Wheat plant response rating: scale of 0 to 10 where 0 is no effect and 10 is complete control
Summary of the method: as §2

[15] = test system: purple nutsedge; test: Test B pre/postemergence purple nutsedge; type: in vivo, Cyperus rotundus; conditions: for Nutsedge plant response rating: scale of 0 to 10 where 0 is no effect and 10 is complete control
Summary of the method: as §2

[16] = test system: cocklebur; test: Test B pre/postemergence cocklebur; type: in vivo, Xanthium strumarium; conditions: for Cocklebur plant response rating: scale of 0 to 10 where 0 is no effect and 10 is complete control
Summary of the method: as §2

[17] = Postemergence (flood test), Rate 125 g/ha, scale 0 to 10, 0 is no effect, 10 is complete control
[18] = Rate 62 g/ha, Postemergence (flood test species), scale of 0 to 10 where 0 is no effect and 10 is complete control
[19] = Rate 62 g/ha, flood test species, Pre-emergence, visual evaluation after twelve to sixteen days
[20] = Rate 125 g/ha, under heading Pre-emergence, flood test species, visual evaluation after twelve to sixteen days
[21] = Rate 250 g/ha, Pre-emergence, flood-test species, scale 0 to 10, 0 is no effect, 10 is complete control
[22] = Rate 500 g/ha, listed under Postemergence (flood test species), scale 0 to 10, 0 no effect, 10 complete control
[23] = Rate 500 g/ha, Pre-emergence, flood test species, scale 0 to 10 (0 no effect, 10 complete control)
[24] = flood test species, listed under Postemergence, Rate 250 g/ha, scale 0 to 10, 0 is no effect, 10 is complete control
[25] = Postemergence, Rate 125 g/ha, scale 0 to 10, 0 is no effect, 10 is complete control
[26] = Postemergence, Rate 250 g/ha, scale 0 to 10, 0 is no effect, 10 is complete control
[27] = Preemergence, Rate 62 g/ha, scale 0 to 10 (0 no effect, 10 complete control)
[28] = Rate 500 g/ha, Postemergence, scale 0 to 10, 0 no effect, 10 complete control

CC1CC1n1c(=O)on(C(=O)N(c2ccc(F)cc2F)C(C)C)c1=O (stereo not shown) [Compound 372]
Plant response rating, Ducksalad [1, 17]: 6 | Ducksalad plant response rating [1, 18]: 3 | Plant response rating, Ducksalad (0 to 10 scale, 0 is no effect, 10 is complete control) [1, 19]: 0 | Ducksalad plant response rating (0 to 10 scale, 0 is no effect, 10 is complete control) [1, 20]: 0 | Ducksalad plant response rating [1, 21]: 0 | Plant response rating, Ducksalad [1, 22]: 6 | Ducksalad plant response rating [1, 23]: 0 | Plant response rating, Ducksalad [1, 24]: 6 | Plant response rating, Sugarbeets [2, 25]: 2 | Plant response rating, Sugarbeets [2, 26]: 2 | Plant response rating, Sugarbeets [2, 27]: 2 | Sugarbeets plant response rating (0 to 10 scale) ([2]; Preemergence, Rate 125 g/ha): 4 | Sugarbeets plant response rating ([2]; Preemergence, Rate 250 g/ha): 10 | Sugarbeets plant response rating ([2]; Preemergence, Rate 500 g/ha): 10 | Sugarbeets plant response rating ([2]; Rate 62 g/ha, Postemergence): 0 | Plant response rating, Sugarbeets [2, 28]: 8 | Plant response rating, S. Flatsedge [3, 17]: 2 | S. Flatsedge plant response rating [3, 18]: 2 | Plant response rating, S. Flatsedge (0 to 10 scale, 0 is no effect, 10 is complete control) [3, 19]: 0 | S. Flatsedge plant response rating (0 to 10 scale, 0 is no effect, 10 is complete control) [3, 20]: 0 | S. Flatsedge plant response rating [3, 21]: 0 | Plant response rating, S. Flatsedge [3, 22]: 8 | S. Flatsedge plant response rating [3, 23]: 0 | Plant response rating, S. Flatsedge [3, 24]: 8 | Plant response rating, Blackgrass [4, 25]: 4 | Plant response rating, Blackgrass [4, 26]: 7 | Plant response rating, Blackgrass [4, 27]: 5 | Blackgrass plant response rating (0 to 10 scale) ([4]; Preemergence, Rate 125 g/ha): 6 | Blackgrass plant response rating ([4]; Preemergence, Rate 250 g/ha): 10 | Blackgrass plant response rating ([4]; Preemergence, Rate 500 g/ha): 10 | Blackgrass plant response rating ([4]; Rate 62 g/ha, Postemergence): 4 | Plant response rating, Blackgrass [4, 28]: 10 | Plant response rating, Rape [5, 26]: 3 | Plant response rating, Rape [5, 27]: 5 | Rape plant response rating (0 to 10 scale) ([5]; Preemergence, Rate 125 g/ha): 5 | Rape plant response rating ([5]; Preemergence, Rate 250 g/ha): 10 | Rape plant response rating ([5]; Preemergence, Rate 500 g/ha): 10 | Rape plant response rating ([5]; Rate 62 g/ha, Postemergence): 2 | Plant response rating, Rape [5, 28]: 5 | Plant response rating, Rice [6, 17]: 0 | Rice plant response rating [6, 18]: 0 | Plant response rating, Rice (0 to 10 scale, 0 is no effect, 10 is complete control) [6, 19]: 0 | Rice plant response rating (0 to 10 scale, 0 is no effect, 10 is complete control) [6, 20]: 0 | Rice plant response rating [6, 21]: 0 | Plant response rating, Rice [6, 22]: 2 | Rice plant response rating [6, 23]: 0 | Plant response rating, Rice [6, 24]: 2 | Plant response rating, Crabgrass [7, 25]: 2 | Plant response rating, Crabgrass [7, 26]: 8 | Plant response rating, Crabgrass [7, 27]: 8 | Crabgrass plant response rating (0 to 10 scale) ([7]; Preemergence, Rate 125 g/ha): 9 | Crabgrass plant response rating ([7]; Preemergence, Rate 250 g/ha): 10 | Crabgrass plant response rating ([7]; Preemergence, Rate 500 g/ha): 10 | Crabgrass plant response rating ([7]; Rate 62 g/ha, Postemergence): 2 | Plant response rating, Crabgrass [7, 28]: 9 | Plant response rating, Velvetleaf [8, 25]: 0 | Plant response rating, Velvetleaf [8, 26]: 2 | Plant response rating, Velvetleaf [8, 27]: 3 | Velvetleaf plant response rating (0 to 10 scale) ([8]; Preemergence, Rate 125 g/ha): 5 | Velvetleaf plant response rating ([8]; Preemergence, Rate 250 g/ha): 6 | Velvetleaf plant response rating ([8]; Preemergence, Rate 500 g/ha): 7 | Velvetleaf plant response rating ([8]; Rate 62 g/ha, Postemergence): 0 | Plant response rating, Velvetleaf [8, 28]: 2 | Plant response rating, Morningglory [9, 25]: 7 | Plant response rating, Morningglory [9, 26]: 7 | Plant response rating, Morningglory [9, 27]: 0 | Morningglory plant response rating (0 to 10 scale) ([9]; Preemergence, Rate 125 g/ha): 0 | Morningglory plant response rating ([9]; Preemergence, Rate 250 g/ha): 2 | Morningglory plant response rating ([9]; Preemergence, Rate 500 g/ha): 3 | Morningglory plant response rating ([9]; Rate 62 g/ha, Postemergence): 5 | Plant response rating, Morningglory [9, 28]: 10 | Plant response rating, Corn [10, 25]: 0 | Plant response rating, Corn [10, 26]: 0 | Plant response rating, Corn [10, 27]: 2 | Corn plant response rating (0 to 10 scale) ([10]; Preemergence, Rate 125 g/ha): 2 | Corn plant response rating ([10]; Preemergence, Rate 250 g/ha): 9 | Corn plant response rating ([10]; Preemergence, Rate 500 g/ha): 9 | Corn plant response rating ([10]; Rate 62 g/ha, Postemergence): 0 | Plant response rating, Corn [10, 28]: 3 | Plant response rating, B. signalgrass [11, 25]: 2 | Plant response rating, B. signalgrass [11, 26]: 4 | Plant response rating, B. signalgrass [11, 27]: 0 | B. signalgrass plant response rating (0 to 10 scale, 0 is no effect, 10 is complete control) ([11]; Preemergence, Rate 125 g/ha): 4 | B. signalgrass plant response rating ([11]; Preemergence, Rate 250 g/ha): 6 | B. signalgrass plant response rating ([11]; Preemergence, Rate 500 g/ha): 8 | B. signalgrass plant response rating ([11]; Rate 62 g/ha, Postemergence): 0 | Plant response rating, B. signalgrass [11, 28]: 7 | Plant response rating, Redroot pigweed [12, 25]: 3 | Plant response rating, Redroot pigweed [12, 26]: 6 | Plant response rating, Redroot pigweed [12, 27]: 6 | Redroot pigweed plant response rating (0 to 10 scale) ([12]; Preemergence, Rate 125 g/ha): 10 | Redroot pigweed plant response rating ([12]; Preemergence, Rate 250 g/ha): 10 | Redroot pigweed plant response rating ([12]; Preemergence, Rate 500 g/ha): 10 | Redroot pigweed plant response rating ([12]; Rate 62 g/ha, Postemergence): 2 | Plant response rating, Redroot pigweed [12, 28]: 9 | Plant response rating, Giant foxtail [13, 25]: 9 | Plant response rating, Giant foxtail [13, 26]: 9 | Plant response rating, Giant foxtail [13, 27]: 10 | Giant foxtail plant response rating (0 to 10 scale) ([13]; Preemergence, Rate 125 g/ha): 10 | Giant foxtail plant response rating ([13]; Preemergence, Rate 250 g/ha): 10 | Giant foxtail plant response rating ([13]; Preemergence, Rate 500 g/ha): 10 | Giant foxtail plant response rating ([13]; Rate 62 g/ha, Postemergence): 4 | Plant response rating, Giant foxtail [13, 28]: 9 | Plant response rating, Wheat [14, 25]: 0 | Plant response rating, Wheat [14, 26]: 0 | Plant response rating, Wheat [14, 27]: 0 | Wheat plant response rating (0 to 10 scale) ([14]; Preemergence, Rate 125 g/ha): 0 | Wheat plant response rating ([14]; Preemergence, Rate 250 g/ha): 0 | Wheat plant response rating ([14]; Preemergence, Rate 500 g/ha): 6 | Wheat plant response rating ([14]; Rate 62 g/ha, Postemergence): 0 | Plant response rating, Wheat [14, 28]: 2 | Plant response rating, Nutsedge [15, 25]: 0 | Plant response rating, Nutsedge [15, 26]: 0 | Plant response rating, Nutsedge [15, 27]: 0 | Nutsedge plant response rating (0 to 10 scale) ([15]; Preemergence, Rate 125 g/ha): 0 | Nutsedge plant response rating ([15]; Preemergence, Rate 250 g/ha): 0 | Nutsedge plant response rating ([15]; Preemergence, Rate 500 g/ha): 10 | Nutsedge plant response rating ([15]; Rate 62 g/ha, Postemergence): 0 | Plant response rating, Nutsedge [15, 28]: 0 | Plant response rating, Cocklebur [16, 25]: 0 | Plant response rating, Cocklebur [16, 26]: 0 | Plant response rating, Cocklebur [16, 27]: 0 | Cocklebur plant response rating (0 to 10 scale) ([16]; Preemergence, Rate 125 g/ha): 0 | Cocklebur plant response rating ([16]; Preemergence, Rate 250 g/ha): 2 | Cocklebur plant response rating ([16]; Preemergence, Rate 500 g/ha): 2 | Cocklebur plant response rating ([16]; Rate 62 g/ha, Postemergence): 0 | Plant response rating, Cocklebur [16, 28]: 3
